We go through 5 molecules from patent US10011587B2, “Multivalent ligands targeting VEGFR” (THE METHODIST HOSPITAL SYSTEM, priority 2014, dated 2018).

Data set [1] has as its system MDA-MB-231, HCT-116, U-87-MG. The data set is described as follows: In vitro cell viability (MTT), cancer cell lines. It is filed as cell-based, human. Here is the method: (§1) MDA-MB-231 and U-87-MG cell lines were cultured in DMEM medium (Gibco, Grand Island, N.Y.) containing 10% fetal bovine serum (FBS) and 1% penicillin streptomycin at 37° C. in a humidified atmosphere of 5% CO2 in air. HCT 116 (human, colorectal carcinoma cell line) was grown in McCoy's 5a medium modified with 10% FBS. HUVECs (Human Umbilical Vein Endothelial cells) were grown in EGM medium (Lonza), supplemented with 20% FBS, 100 U/mL penicillin, 100 μg/mL streptomycin at 37° C. under a humidified atmosphere of 5% CO2 and 95% O2 with same condition as above. For the cell viability assay, the cells were then seeded into 96-well flat-bottomed tissue-culture plates at 1×10^4 cells/well and incubated for 24 or 72 h in humidified atmosphere of 5% (v/v) CO2 at 37° C. in the presence of each compound. For HUVECs, the flat-bottomed 96-well plate (Corning, N.Y., USA) was coated 1 h at 37° C. with gelatin (0.3% in PBS, pH 7.4) and then washed with PBS. The cells were then treated with ZD6474 monomer and its dimer compounds in the range from 5 nM to 100 μM concentration mixed with 1% FBS added culture medium (HUVECs was 2% FBS added). Following 24 and 72 h of incubation under 5% CO2 at 37° C., the cells were washed with PBS and cell viability was assessed by MTT colorimetric assay. The absorbance of individual wells was measured by using an automated microplate reader (570 nm; VERSAmax, Molecular Devices Corp., Sunnyvale, Calif.). The data are expressed as the percentage of viable cells compared to the survival of a control group and were presented as mean±s.e. (n=6).

In data set [2] the test system is HUVECs. As to the kind of experiment: In vitro cell viability (MTT), HUVECs. The class given is cell-based, human. As to the method:
as §1, with “The cells were then treated with ZD6474 monomer and its dimer compounds in the range from 5 nM to 100 μM concentration mixed with 1% FBS added culture medium (HUVECs was 2% FBS added).” left out, “(n=6).” left out

Data set [3] has as its system HUVECs. The data set is described as follows: In vitro tubular formation on Matrigel. It is filed as cell-based, human. To be noted: 10 μM, 6 h. As to the method:
Growth factor reduced Matrigel (100 μL, BD Bioscience, San Jose, Calif., USA) was added to each well of a 96-well plate and allowed to polymerize for 30 min at 37° C. HUVECs were suspended in the medium at the density of 4×10^5 cells per milliliter, and 0.1 mL of the cell suspension was added to each well coated with Matrigel in the presence of ZD6474 monomer or ZD6474 dimer Cells were incubated at 37° C. for 6 h, and then photographed. The branch points were counted and averaged.

The subject of data set [4] is VEGF165-induced angiogenesis. As to the kind of experiment: In vivo Matrigel plug assay. Further details: species or system nu/nu nude mice. The settings on record: VEGF165 500 ng/mL, compound 100 μM, 10 days. Here is the method:
The matrigel plug assays were performed injecting 637 μL of growth factor reduced liquid Matrigel-PBS mixture was into subcutaneously into the flanks of nu/nu nude mice at 4° C. Once inside the animals, the liquid Matrigel-PBS mixture solidifies. For comparison, Matrigel alone as well as Matrigel containing VEGF165 (Peprotech, Rocky Hill, N.J.) at a final concentration of 500 ng/mL to stimulate angiogenesis, and Matrigel with VEGF165 along with either ZD6474 monomer, ZD6474 dimer at a final concentration of 100 μM were used. All of the injection groups consisted of three mice. After 10 days, the mice were sacrificed and the Matrigel plugs were removed, fixed in 4% formalin and photographed.

Data set [5] in a line: In vitro cell viability (MTT), cancer cell lines. The class given is cell-based, human. To be noted: human, MDA-MB-231, HCT-116 and U-87-MG cancer cells; 100 μM, cancer cell lines, 72 h; read-out: cells remaining viable. As to the method:
as §1

The target in the next data set is T1, VEGFR2 (Homo sapiens, UniProt P35968).
T1 construct: evaluated by saturation and displacement assays using U87 cells; endogenous in cells; host or cells: U87 (U87MG) human glioblastoma cells
The data set is described as follows: Cell VEGFR2 receptor-binding assay, displacement/competition. The settings on record: read-out: 50% inhibitory concentration (IC50). Here is the method:
Cells were seeded in 12 well plates at concentration of 5×10^5 cells per well the day before the experiment. […] The cells were then washed with cold PBS and trypsinized. The cell-associated radioactivity was measured using γ-counter (Perkin-Elmer, CT) and the Kd values were calculated by fitting the data by nonlinear regression using GraphPad Prism (GraphPad Software, CA). […] The experiment procedures are similar with those used for the saturation study described above. All experiments were carried out with triplicate samples.

Another data set has as its target T2, VEGFR (Homo sapiens, UniProt P35968).
T2 construct: endogenous in cells; host or cells: U-87 MG human glioblastoma cells
The data set is described as follows: VEGFR cell receptor-binding assay, competition against 64Cu-DOTA-ZD-G2. To be noted: U-87 MG cells, 1 uCi 64Cu-DOTA-ZD-G2 per well, 4° C., 1 hour. As to the method:
Cells were seeded in 12-well plates at a density about 5×10^5 cells per well the day before the experiment. […] The HPLC purified radio-tracer was re-dissolved in FBS-free DMEM medium and diluted to 1 uCi/100 uL. […] After incubation at 4° C. for 1 hour, the supernatant with free radio tracer was removed carefully and the cells were then washed with cold PBS for three times and trypsinized. The cells were collected and cell pellet associated radioactivity was measured and the binding affinity values (IC50) were calculated by nonlinear regression using GraphPad Prism (GraphPad Software, CA). All experiments were carried out in triplicate.

Data set [6] deals with MDA-MB-231 cells and HUVEC. As to the kind of experiment: In vitro cellular uptake of FAM-conjugated compounds. It is filed as cell-based, human. The settings on record: 3 h, 100 nM dose. Here is the method: Each of the FAM-conjugated compounds was incubated with MDA-MB-231 cells seeded 24 h earlier in a 96 well plate with 1% serum medium. Serial dilutions of the compounds were incubated for 3 h. The treated medium was then exchanged for fresh serum free medium. The remaining compound was then quantified from images taken using a Xenogen IVIS-200 (PerkinElmer, Inc. San Jose, Calif.) fluorescent imaging system. The same was done with HUVEC.

A further data set relates to VEGF receptor on HUVECs. The data set is described as follows: Blocking assay of FAM-conjugated compounds. To be noted: HUVEC. The class given is cell-based, human. Here is the method:
Specific binding of ZD6474-monomer and dimer were tested with blocking studies. Unlabeled ZD6474-monomer and ZD6474-dimer were mixed with the corresponding FAM-conjugated compounds simultaneously for 3 h. Plates were then imaged using the Xenogen IVIS-200 system. Similarly treated cells were fixed in 4% paraformaldehyde and imaged under fluorescent microscopy after staining the nuclei with DAPI.

Data set [7] deals with U87-MG human glioblastoma xenograft. As to the kind of experiment: Ex vivo tumor accumulation and biodistribution fluorescence imaging. It is filed as in vivo, nu/nu female mice. As to the method: The subcutaneous dorsa of five nu/nu female mice (6 weeks old; 20 g) were inoculated bilaterally with 1×10^7 U87-MG human glioblastoma cells overexpressing the VEGF receptor. Once the tumor diameter was approximately 7-8 mm at 21 days post implant, the mice were divided into three groups for the following injections: (a) free FAM (n=1), (b) FAM-labeled ZD6474-monomer (50 μM; n=2), and (c) FAM-labeled ZD6474-dimer (50 μM, n=2). The animals were manually restrained during intravenous tail injection. All tail vein injections were carried out with a 31 gauge needle placed in a lateral tail vein to inject 100 μL of solution. Twenty-four hours post injection, fluorescence images were acquired using a one second exposure time. The tumors and major organs were dissected and imaged again. […] In vivo fluorescence imaging was performed using the Xenogen IVIS 200 imaging system. To better observe the signal without losses and background due to intervening tissue, fluorescence images were collected ex vivo. Raw counts for each organ were measured using the Xenogen software by drawing oval regions of interest (ROI) around the organ of interest. […] An estimate of the percentage of injected dose accumulated in the tumors was established by comparing measured counts/volume of tissue with the measured counts/volume of a known concentration of the same compound in water at the same exposure. […]

T1 sequence (P35968 20-1356): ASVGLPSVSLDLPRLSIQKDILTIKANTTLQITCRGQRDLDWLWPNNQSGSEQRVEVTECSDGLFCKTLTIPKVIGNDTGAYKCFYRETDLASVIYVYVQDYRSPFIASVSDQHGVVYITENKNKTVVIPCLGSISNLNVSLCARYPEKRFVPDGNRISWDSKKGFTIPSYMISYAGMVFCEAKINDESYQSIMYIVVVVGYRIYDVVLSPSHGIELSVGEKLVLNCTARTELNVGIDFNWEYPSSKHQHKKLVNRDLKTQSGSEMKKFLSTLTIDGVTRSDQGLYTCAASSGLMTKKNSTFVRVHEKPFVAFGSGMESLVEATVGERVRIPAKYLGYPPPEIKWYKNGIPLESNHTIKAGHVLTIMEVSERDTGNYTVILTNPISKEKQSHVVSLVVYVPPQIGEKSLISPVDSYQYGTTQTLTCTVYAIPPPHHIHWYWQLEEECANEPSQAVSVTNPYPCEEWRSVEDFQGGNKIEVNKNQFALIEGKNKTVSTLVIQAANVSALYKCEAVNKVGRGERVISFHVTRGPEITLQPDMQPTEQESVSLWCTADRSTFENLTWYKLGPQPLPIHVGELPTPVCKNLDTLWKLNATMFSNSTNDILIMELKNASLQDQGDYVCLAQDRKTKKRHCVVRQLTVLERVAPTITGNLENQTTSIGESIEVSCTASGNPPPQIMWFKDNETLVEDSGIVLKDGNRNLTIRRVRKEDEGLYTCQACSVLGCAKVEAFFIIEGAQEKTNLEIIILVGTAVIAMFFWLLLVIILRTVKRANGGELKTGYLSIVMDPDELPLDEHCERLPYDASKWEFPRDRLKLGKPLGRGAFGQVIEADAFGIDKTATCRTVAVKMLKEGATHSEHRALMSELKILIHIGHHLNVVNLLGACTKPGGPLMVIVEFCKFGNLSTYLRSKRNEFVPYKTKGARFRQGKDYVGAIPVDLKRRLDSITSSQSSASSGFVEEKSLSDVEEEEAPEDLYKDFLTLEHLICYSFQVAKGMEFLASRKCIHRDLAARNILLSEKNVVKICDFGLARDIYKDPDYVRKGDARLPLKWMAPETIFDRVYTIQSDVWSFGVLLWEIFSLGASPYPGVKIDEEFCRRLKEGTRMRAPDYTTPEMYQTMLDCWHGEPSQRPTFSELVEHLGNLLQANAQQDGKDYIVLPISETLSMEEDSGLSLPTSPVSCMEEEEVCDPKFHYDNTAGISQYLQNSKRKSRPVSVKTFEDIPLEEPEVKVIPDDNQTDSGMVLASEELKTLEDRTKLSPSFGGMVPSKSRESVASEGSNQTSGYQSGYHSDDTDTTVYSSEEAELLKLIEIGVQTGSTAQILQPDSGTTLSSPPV
T2 sequence (P35968 20-1356): as above

As to `COc1cc2c(Nc3ccc(Br)cc3F)ncnc2cc1OCC1CCN(C(=O)CCCCCC(N)C(=O)N2CCC(COc3cc4ncnc(Nc5ccc(Br)cc5F)c4cc3OC)CC2)CC1` (stereo not shown) [ZD6474-dimer], the “toxicity to the cancer cells” value in [1] (5 nM to 50 μM) is “low toxicity”. For the same molecule, the cells remaining viable entry in data set [1] (100 μM, cancer cell lines, 72 h) is “around 50%”. Besides, in the data set with HUVECs [2], the “concentration at which cell viability begins to be affected” value came to 500 nM. In addition, the “number of tube branches (control group 100%)” value with HUVECs [3] was 75±5.2%. In data set [4], the “appearance of Matrigel plugs (blood vessel formation)” value is “almost the same as the PBS treated negative control group”.
Turning to `COc1cc2c(Nc3ccc(Br)cc3F)ncnc2cc1OCC1CCN(C)CC1` [ZD-G1, vandetanib, reference compound], the viability at 72 h, 100 µM in [5] is about 50%. In addition, in the data set with HUVECs [2], the “concentration at which cell viability begins to be affected” value stood at 500 nM. For the same molecule, the “number of tube branches (control group 100%)” value with HUVECs [3] is listed as 52.0±4.8%.
Consider `COc1cc2c(Nc3ccc(Br)cc3F)ncnc2cc1OCC1CCN(C(=O)OCCN(CCOC(=O)NCCN)CCOC(=O)N2CCC(COc3cc4ncnc(Nc5ccc(Br)cc5F)c4cc3OC)CC2)CC1` [ZD-G2], for which the IC50 stood at 0.023 ± 0.002 nM on VEGFR2 and 0.026 nM at VEGFR.
In the case of `COc1cc2c(Nc3ccc(Br)cc3F)ncnc2cc1OCC1CCN(C(=O)CCCCCC(NC(=O)c2ccc(C(=O)O)c(-c3c4ccc(=O)cc-4oc4cc(O)ccc34)c2)C(=O)N2CCC(COc3cc4ncnc(Nc5ccc(Br)cc5F)c4cc3OC)CC2)CC1` (stereo not shown) [dimer-FAM], the “uptake in HUVECs compared with MDA-MB-231 cells” value in data set [6] is “overall higher uptake of dimer-FAM by HUVECs”. In addition, the “blocking of fluorescence (cellular uptake images)” value with VEGF receptor on HUVECs (100 μM ZD6474-dimer) was “Complete blocking of fluorescence”. The “loss of FAM signal when mixed with unlabeled dimer” value in the data set with VEGF receptor on HUVECs (100× unlabeled ZD6474-dimer, 3 h) is on record as about 90%. Further, the “total injected dose ending up in the tumors” value in data set [7] (24 h after i.v. injection, estimate against known dye concentrations) is listed as “at least 6%”. Also, the “fluorescent intensity of tumors relative to tumors in other groups and organs” value in [7] (ex vivo, 24 h following i.v. injection) is on record as “about 20 ×”.
Take `COc1cc2c(Nc3ccc(Br)cc3F)ncnc2cc1OCC1CCN(C(=O)c2ccc(C(=O)O)c(-c3c4ccc(=O)cc-4oc4cc(O)ccc34)c2)CC1` [monomer-FAM]: in the data set with VEGF receptor on HUVECs (100× unlabeled compound, 10 μM dose), the “mean blocked signal relative to blocked dimer FAM” value was “over 10 ×”.
